Consider 10 compounds from patent US6093744A, “N-acyl sulfamic acid esters useful as hypocholesterolemic agents” (Warner-Lambert Company, priority 1998, dated 2000).

The subject of experiment [1] is Plasma TC. The experiment in a line: in vivo screen designated APCC (high fat, high cholesterol diet, plasma cholesterol). The arrangement: species or system male Sprague-Dawley rats. As to conditions: dose 10 mg/kg, rats, PCC diet with 0.5% cholic acid overnight, vehicle CMC/Tween; for change in vivo at 10 mg/kg: Rattus norvegicus. The source says:
In one in vivo screen designated APCC, male Sprague-Dawley rats (200 to 225 g) were randomly divided into treatment groups and dosed at 4 PM with either vehicle (CMC/Tween) or suspensions of compounds in vehicle. The normal chow diet was then replaced with a high fat, high cholesterol diet (designated PCC) containing 0.5% cholic acid. The rats consumed this diet ad libitum during the night and were sacrificed at 8 AM to obtain blood samples for cholesterol analysis using standard procedures. Statistical differences between mean cholesterol values for the same vehicle were determined using analysis of variance followed by Fisher's least significant test.

Experiment [2] deals with T1, acyl-CoA: cholesterol acyltransferase (ACAT) (Rattus norvegicus, UniProt Q7TQM4).
T1 construct: tissue preparation containing rat liver microsomes; from tissue; host or cells: rat liver microsomes
T1 sequence (Q7TQM4 1-524): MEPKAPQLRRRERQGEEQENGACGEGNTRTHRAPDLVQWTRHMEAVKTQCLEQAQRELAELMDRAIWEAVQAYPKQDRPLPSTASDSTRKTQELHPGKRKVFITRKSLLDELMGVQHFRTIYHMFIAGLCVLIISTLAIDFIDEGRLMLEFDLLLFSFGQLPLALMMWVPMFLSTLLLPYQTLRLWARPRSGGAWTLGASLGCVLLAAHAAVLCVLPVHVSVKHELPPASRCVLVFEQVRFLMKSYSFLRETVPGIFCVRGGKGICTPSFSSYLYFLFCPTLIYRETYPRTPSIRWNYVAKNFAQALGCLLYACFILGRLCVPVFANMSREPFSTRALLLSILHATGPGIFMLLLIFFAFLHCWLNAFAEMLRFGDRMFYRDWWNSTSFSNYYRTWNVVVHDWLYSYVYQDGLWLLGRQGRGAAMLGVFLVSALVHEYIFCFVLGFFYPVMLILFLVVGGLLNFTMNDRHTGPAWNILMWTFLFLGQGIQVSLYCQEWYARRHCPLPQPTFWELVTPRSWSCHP
The experiment can be described thus: In vitro inhibition of acylation of cholesterol by oleic acid (LAI), rat liver microsomes. The experiment is classed as biochemical. The conditions noted are these: radiolabeled oleic acid. The procedure:
The ability of representative compounds of the present invention to inhibit ACAT was measured using an in vitro test more fully described in Field F J, Salone R G, Biochemica et Biophysica 1982; 712:557-570. The test assesses the ability of a test compound to inhibit the acylation of cholesterol by oleic acid by measuring the amount of radiolabeled cholesterol oleate formed from radiolabeled oleic acid in a tissue preparation containing rat liver microsomes.

Counter-ions that a name gives are not always drawn.

The term IC50 denotes the concentration at which inhibition is half-maximal. A low value points to higher potency. Regarding `CC(C)c1cc(C(C)C)c(CC(=O)NS(=O)(=O)Oc2c(C(C)C)cc(NC(=O)[C@@H](C)N)cc2C(C)C)c(C(C)C)c1` [Example 11, (D)-[(2,4,6-Triisopropyl-phenyl)-acetyl]-sulfamic acid 4-(2-amino-propionylamino)-2,6-diisopropyl-phenyl ester trifluoroacetate(1:1) (salt)], the change in vivo at 10 mg/kg in experiment [1] was -19%. The compound further registered a 50% inhibitory concentration (IC50) in experiment [2] of more than 50 µM.
The like results for `CC(C)c1cc(C(C)C)c(CC(=O)NS(=O)(=O)Oc2c(C(C)C)cc(NC(=O)[C@H](C)N)cc2C(C)C)c(C(C)C)c1` [Example 12, (L)-[(2,4,6-Triisopropyl-phenyl)-acetyl]-sulfamic acid 4-(2-amino-propionylamino)-2,6-diisopropyl-phenyl ester] were, in that order, -74% and more than 50 µM.
The like results for `CC(C)c1cc(C(C)C)c(CC(=O)NS(=O)(=O)Oc2c(C(C)C)cc(NC(=O)C(C)(C)N)cc2C(C)C)c(C(C)C)c1` [Example 13, [(2,4,6-Triisopropyl-phenyl)-acetyl]-sulfamic acid 4-(2-amino-2-methyl-propionylamino)-2,6-diisopropyl-phenyl ester] were, in that order, -8% and more than 50 µM.
Take `CC(C)c1cc(C(C)C)c(CC(=O)NS(=O)(=O)Oc2c(C(C)C)cc(OCCCN(C)C)cc2C(C)C)c(C(C)C)c1` [Example 14, [(2,4,6-Triisopropyl-phenyl)-acetyl]-sulfamic acid 4-(3-dimethylamino-propoxy)-2,6-diisopropyl-phenyl ester]: the “APCC % Change in Plasma TC” value in experiment [1] is -11%. Also, in experiment [2], the IC50 was more than 50 µM.
With `CC(C)c1cc(C(C)C)c(CC(=O)NS(=O)(=O)Oc2c(C(C)C)cc(OCCCN)cc2C(C)C)c(C(C)C)c1` [Example 16, [(2,4,6-Triisopropyl-phenyl)-acetyl]-sulfamic acid 4-(3-amino-propoxy)-2,6-diisopropyl-phenyl ester hydrochloride salt], the change in vivo at 10 mg/kg in experiment [1] is -47%. This compound yielded an IC50 in experiment [2] of more than 50 µM.
For the compound `CC(C)c1cc(C(C)C)c(CC(=O)NS(=O)(=O)Oc2c(C(C)C)cc(SC#N)cc2C(C)C)c(C(C)C)c1` [Example 17, [(2,4,6-Triisopropyl-phenyl)-acetyl]-sulfamic acid 2,6-diisopropyl-4-thiocyanato-phenyl ester], in experiment [1], the change in vivo at 10 mg/kg was -46%. In addition, the IC50 in experiment [2] amounted to 29 µM.
For `CC(C)c1cc(C(C)C)c(CC(=O)NS(=O)(=O)Oc2c(C(C)C)cc(C#N)cc2C(C)C)c(C(C)C)c1` [Example 18, [(2,4,6-Triisopropyl-phenyl)-acetyl]-sulfamic acid 4-cyano-2,6-diisopropyl-phenyl ester], the change in vivo at 10 mg/kg in experiment [1] was -38%. This compound also returned an IC50 in experiment [2] of more than 50 µM.
Take `CC(C)c1cc(C(C)C)c(CC(=O)NS(=O)(=O)Oc2c(C(C)C)cc(CNC(=O)CN)cc2C(C)C)c(C(C)C)c1` [Example 19, [(2,4,6-Triisopropyl-phenyl)-acetyl]-sulfamic acid 4-[(2-amino-acetylamino)-methyl]-2,6-diisopropyl-phenyl ester]: in experiment [1], the change in vivo at 10 mg/kg was -16%. The IC50 in experiment [2] was more than 50 µM.
The like results for `CC(C)c1cc(C(C)C)c(CC(=O)NS(=O)(=O)Oc2c(C(C)C)cc(C=O)cc2C(C)C)c(C(C)C)c1` [Example 20, [(2,4,6-Triisopropyl-phenyl)-acetyl]-sulfamic acid 4-formyl-2,6-diisopropyl-phenyl ester] were, in that order, -44% and 43.2 µM.
For `CC(C)c1cc(C(C)C)c(CC(=O)NS(=O)(=O)Oc2c(C(C)C)cc(C=CC#N)cc2C(C)C)c(C(C)C)c1` [Example 21, [(2,4,6-Triisopropyl-phenyl)-acetyl]-sulfamic acid 4-(2-cyano-vinyl)-2,6-diisopropyl-phenyl ester], the change in vivo at 10 mg/kg in experiment [1] is -35%. In addition, the 50% inhibitory concentration (IC50) in experiment [2] turned out to be 44.6 µM.
